Target: Hexokinase-4 (Human, UniProt P35557)
Experiment: Glucokinase Activity Assay
Method: Recombinant human liver glucokinase was expressed as a FLAG fusion protein in E. coli, and purified on […] M2 AFFINITY GEL (Sigma). The assay was carried out at 30° C. in a 96-well plate. In the plate was distributed 69 μl each of assay buffer (25 mM Hepes Buffer: pH=7.2, 2 mM MgCl2, 1 mM ATP, 0.5 mM TNAD, 1 mM dithiothreitol), to which was added 1 μl of a DMSO solution of the compound or DMSO as control. Then, 20 μl of pre-ice-cooled enzyme mixture (FLAG-GK, 20 U/ml G6PDH) was distributed thereto, to which was added 10 μl of 25 mM glucose as substrate to initiate the reaction (final glucose concentration=2.5 mM). After starting the reaction, the absorbance at 405 nm was measured every 30 seconds for 10 minutes to evaluate the compound based on the initial increase for 5 minutes. FLAG-GK was added so that the increase of absorbance after 5 minutes fell between 0.05 to 0.1 in the presence of 1% DMSO.

Sequence of Hexokinase-4 (P35557 whole entry, other chains not shown): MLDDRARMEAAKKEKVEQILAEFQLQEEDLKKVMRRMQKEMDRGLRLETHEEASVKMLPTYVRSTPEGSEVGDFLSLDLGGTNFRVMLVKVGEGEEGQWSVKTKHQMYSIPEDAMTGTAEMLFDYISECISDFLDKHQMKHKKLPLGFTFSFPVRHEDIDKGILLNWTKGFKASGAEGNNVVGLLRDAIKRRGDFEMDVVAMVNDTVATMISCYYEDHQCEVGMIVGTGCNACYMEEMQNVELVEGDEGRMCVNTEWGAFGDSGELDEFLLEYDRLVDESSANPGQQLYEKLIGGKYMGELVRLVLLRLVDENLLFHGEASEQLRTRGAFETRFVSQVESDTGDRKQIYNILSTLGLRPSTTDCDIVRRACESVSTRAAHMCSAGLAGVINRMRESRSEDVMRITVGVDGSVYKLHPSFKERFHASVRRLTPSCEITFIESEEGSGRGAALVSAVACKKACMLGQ

| SMILES | EC50 |
| --- | --- |
| CCOC(=O)C(C)(C)CSc1cnc(NC(=O)c2nc(Sc3nncn3C)ccc2Sc2ccc(F)cc2)s1 [US9527838, 20] | 16.9 nM |
| CCOC(=O)CSc1cnc(NC(=O)c2nc(Sc3ccc(F)cc3)ccc2Sc2ccc(F)cc2)s1 [US9527838, 27] | 386 nM |
| CCOC(=O)Cc1nc(NC(=O)c2nc(Sc3ccc(F)cc3)ccc2Sc2ccc(F)cc2)sc1Cl [US9527838, 29] | 16000 nM |
